We go through 13 compounds from PubChem BioAssay AID248 (DTP/NCI, 2004).

The structures appear in SMILES notation. Where “and” joins values, the source holds several entries; their conditions need not be identical. Equal entries are not always repeated. Inconclusive results and toxic doses are left out.

The assay concerns L1210 leukemia ip in BDF1 mice, survival T/C. Briefly: NCI In Vivo Anticancer Drug Screen. Data for tumor model L1210 Leukemia (intraperitoneal) in B6D2F1 (BDF1) mice. The note with it: higher = longer survival. A digest of the protocol: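 Transplantable tumor model; survival measured in treated vs vehicle control mice. Value = treated/control.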
Where [1] appears, read: endpoint: mean survival time, dose: 100.0 mg/kg/injection, schedule: Q04DX002 (ip), vehicle: Klucel (hydroxypropylcellulose) (HPC).
[2] abbreviates: endpoint: mean survival time, dose: 200.0 mg/kg/injection, schedule: Q04DX002 (ip), vehicle: Klucel (hydroxypropylcellulose) (HPC).
The mark [3] stands for this setting: endpoint: mean survival time, dose: 400.0 mg/kg/injection, schedule: Q04DX002 (ip), vehicle: Klucel (hydroxypropylcellulose) (HPC).
Setting [4] is: endpoint: mean survival time, dose: 100.0 mg/kg/injection, schedule: Q01DX001 (ip), vehicle: saline.

On to `COc1cc2c[n+](C)c3c4cc5c(cc4ccc3c2cc1OC)OCO5`, for which the T/C is 109 % of control and 120 % of control (endpoint: mean survival time, dose: 1.0 mg/kg/injection, schedule: Q01DX009 (ip), vehicle: saline); 118 % of control (endpoint: mean survival time, dose: 10.0 mg/kg/injection, schedule: Q01DX009 (ip), vehicle: saline); 121 % of control (endpoint: mean survival time, dose: 40.0 mg/kg/injection, schedule: Q01DX009 (ip), vehicle: saline); 117 % of control and 121 % of control (endpoint: mean survival time, dose: 64.0 mg/kg/injection, schedule: Q01DX009 (ip), vehicle: saline); 150 % of control (endpoint: mean survival time, dose: 80.0 mg/kg/injection, schedule: Q04DX003 (ip), vehicle: saline); 111 % of control under setting [1]. The T/C is 111 % of control under setting [2]; 107 % of control under setting [3]; 114 % of control (endpoint: median survival time, dose: 1.0 mg/kg/injection, schedule: Q03HX024 (ip), vehicle: saline); 124 % of control (endpoint: median survival time, dose: 2.0 mg/kg/injection, schedule: Q03HX016 (ip), vehicle: saline); 121 % of control (endpoint: median survival time, dose: 4.0 mg/kg/injection, schedule: Q03HX008 (ip), vehicle: saline); 119 % of control (endpoint: median survival time, dose: 4.0 mg/kg/injection, schedule: Q03HX016 (ip), vehicle: saline). Moreover, the T/C is 103 % of control (endpoint: median survival time, dose: 8.0 mg/kg/injection, schedule: Q04DX003 (ip), vehicle: saline); 105 % of control (endpoint: median survival time, dose: 8.0 mg/kg/injection, schedule: Q08DX002 (ip), vehicle: saline); 105 % of control (endpoint: median survival time, dose: 16.0 mg/kg/injection, schedule: Q01DX009 (oral), vehicle: saline); 121 % of control (endpoint: median survival time, dose: 16.0 mg/kg/injection, schedule: Q03HX008 (ip), vehicle: saline); 101 % of control (endpoint: median survival time, dose: 16.0 mg/kg/injection, schedule: Q04DX003 (ip), vehicle: saline); 103 % of control (endpoint: median survival time, dose: 16.0 mg/kg/injection, schedule: Q08DX002 (ip), vehicle: saline). Also, the T/C (endpoint: median survival time, dose: 32.0 mg/kg/injection, schedule: Q01DX001 (ip), vehicle: saline) is 121 % of control; the T/C (endpoint: median survival time, dose: 32.0 mg/kg/injection, schedule: Q01DX009 (oral), vehicle: saline) is 109 % of control; the T/C (endpoint: median survival time, dose: 32.0 mg/kg/injection, schedule: Q04DX003 (ip), vehicle: saline) was 101 % of control; the T/C (endpoint: median survival time, dose: 64.0 mg/kg/injection, schedule: Q01DX001 (ip), vehicle: saline) was 112 % of control; the T/C (endpoint: median survival time, dose: 64.0 mg/kg/injection, schedule: Q01DX009 (ip), vehicle: saline) was 112 % of control; the T/C (endpoint: median survival time, dose: 64.0 mg/kg/injection, schedule: Q01DX009 (oral), vehicle: saline) is 103 % of control. Moreover, the T/C is 101 % of control (endpoint: median survival time, dose: 64.0 mg/kg/injection, schedule: Q04DX003 (ip), vehicle: saline); 121 % of control (endpoint: median survival time, dose: 128.0 mg/kg/injection, schedule: Q01DX001 (ip), vehicle: saline); 102 % of control (endpoint: median survival time, dose: 128.0 mg/kg/injection, schedule: Q01DX009 (oral), vehicle: saline); 87 % of control (endpoint: median survival time, dose: 128.0 mg/kg/injection, schedule: Q04DX003 (ip), vehicle: saline); 101 % of control (endpoint: median survival time, dose: 128.0 mg/kg/injection, schedule: Q08DX002 (ip), vehicle: saline); 100 % of control (endpoint: median survival time, dose: 256.0 mg/kg/injection, schedule: Q01DX009 (oral), vehicle: saline). Moreover, the T/C (endpoint: median survival time, dose: 512.0 mg/kg/injection, schedule: Q01DX009 (oral), vehicle: saline) is 105 % of control.
Regarding `O=C(CCl)C1C(O)=[N+](c2ccccc2)C2C=CC=CN12` (configuration not stated), the T/C (endpoint: mean survival time, dose: 25.0 mg/kg/injection, schedule: Q01DX009 (ip), vehicle: saline) was 92 % of control; the T/C (endpoint: mean survival time, dose: 25.0 mg/kg/injection, schedule: Q04DX003 (ip), vehicle: saline) was 92 % of control; the T/C (endpoint: mean survival time, dose: 50.0 mg/kg/injection, schedule: Q01DX009 (ip), vehicle: saline) was 89 % of control; the T/C (endpoint: mean survival time, dose: 50.0 mg/kg/injection, schedule: Q04DX003 (ip), vehicle: saline) was 102 % of control; the T/C under setting [4] was 105 % of control; the T/C (endpoint: mean survival time, dose: 100.0 mg/kg/injection, schedule: Q01DX009 (ip), vehicle: saline) was 87 % of control. The T/C by setting is: (endpoint: mean survival time, dose: 100.0 mg/kg/injection, schedule: Q04DX003 (ip), vehicle: saline) 95 % of control; (endpoint: mean survival time, dose: 150.0 mg/kg/injection, schedule: Q01DX009 (ip), vehicle: saline) 95 % of control; (endpoint: mean survival time, dose: 225.0 mg/kg/injection, schedule: Q01DX009 (ip), vehicle: saline) 95 % of control; (endpoint: mean survival time, dose: 335.0 mg/kg/injection, schedule: Q01DX009 (ip), vehicle: saline) 95 % of control.
Turning to `O=C1N(c2cc([N+](=O)[O-])ccc2F)C(=O)C(F)(F)C1(F)F`, the T/C was 102 % of control (endpoint: mean survival time, dose: 100.0 mg/kg/injection, schedule: Q01DX001 (ip), vehicle: saline with Tween-80) and 97 % of control (endpoint: mean survival time, dose: 200.0 mg/kg/injection, schedule: Q01DX001 (ip), vehicle: saline with Tween-80).
For the compound `Nc1cncnc1N`, the T/C by setting is: (endpoint: mean survival time, dose: 30.0 mg/kg/injection, schedule: Q01DX Z (ip), vehicle: saline) 101 % of control; (endpoint: mean survival time, dose: 60.0 mg/kg/injection, schedule: Q01DX Z (ip), vehicle: saline) 103 % of control; (endpoint: mean survival time, dose: 120.0 mg/kg/injection, schedule: Q01DX Z (ip), vehicle: saline) 100 % of control; (endpoint: mean survival time, dose: 240.0 mg/kg/injection, schedule: Q01DX Z (ip), vehicle: saline) 97 % of control.
Regarding `O=c1[nH]c2cc(Cl)ccc2c2ccccc12`, the T/C is 99 % of control (endpoint: mean survival time, dose: 100.0 mg/kg/injection, schedule: Q01DX001 (ip), vehicle: carboxymethylcellulose (CMC)); 97 % of control (endpoint: mean survival time, dose: 200.0 mg/kg/injection, schedule: Q01DX001 (ip), vehicle: carboxymethylcellulose (CMC)); 95 % of control (endpoint: mean survival time, dose: 400.0 mg/kg/injection, schedule: Q01DX001 (ip), vehicle: carboxymethylcellulose (CMC)).
With `OC(COc1ccc(Cl)cc1)CN1CCN(c2ccc(Cl)cc2)CC1` (configuration not stated), the T/C runs as follows: under setting [4], 97 % of control; (endpoint: mean survival time, dose: 200.0 mg/kg/injection, schedule: Q01DX001 (ip), vehicle: saline) 95 % of control; (endpoint: mean survival time, dose: 400.0 mg/kg/injection, schedule: Q01DX001 (ip), vehicle: saline) 95 % of control.
With `O=C(Nc1ccc2c(c1)OCO2)O/N=C\c1ccccn1`, the T/C runs as follows: (endpoint: mean survival time, dose: 50.0 mg/kg/injection, schedule: Q01DX009 (ip), vehicle: saline with Tween-80) 103 % of control; (endpoint: mean survival time, dose: 100.0 mg/kg/injection, schedule: Q01DX009 (ip), vehicle: saline with Tween-80) 86 % of control and 92 % of control; (endpoint: mean survival time, dose: 100.0 mg/kg/injection, schedule: Q04DX003 (ip), vehicle: saline with Tween-80) 100 % of control; (endpoint: mean survival time, dose: 200.0 mg/kg/injection, schedule: Q01DX009 (ip), vehicle: saline with Tween-80) 86 % of control and 92 % of control; (endpoint: mean survival time, dose: 200.0 mg/kg/injection, schedule: Q04DX003 (ip), vehicle: saline with Tween-80) 101 % of control; (endpoint: mean survival time, dose: 400.0 mg/kg/injection, schedule: Q01DX009 (ip), vehicle: saline with Tween-80) 91 % of control. Moreover, the T/C (endpoint: mean survival time, dose: 400.0 mg/kg/injection, schedule: Q04DX003 (ip), vehicle: saline with Tween-80) is 95 % of control.
Consider `O=C1CC(c2ccccc2)C(c2ccccc2)C(=O)N1` (configuration not stated), for which the T/C is, setting by setting: (endpoint: mean survival time, dose: 75.0 mg/kg/injection, schedule: Q01DX001 (ip), vehicle: saline) 90 % of control; (endpoint: mean survival time, dose: 150.0 mg/kg/injection, schedule: Q01DX001 (ip), vehicle: saline) 90 % of control.
As for `Nc1ncnc2nc(CO)[nH]c12`, the T/C is 92 % of control under setting [1], 100 % of control under setting [2] and 95 % of control under setting [3].
Turning to `CCC(O)(C1=NC(C)(C)CO1)c1ccncc1Br` (configuration not stated), the T/C by setting is: (endpoint: mean survival time, dose: 100.0 mg/kg/injection, schedule: Q01DX001 (ip), vehicle: Klucel (hydroxypropylcellulose) (HPC)) 100 % of control; (endpoint: mean survival time, dose: 200.0 mg/kg/injection, schedule: Q01DX001 (ip), vehicle: Klucel (hydroxypropylcellulose) (HPC)) 94 % of control; (endpoint: mean survival time, dose: 400.0 mg/kg/injection, schedule: Q01DX001 (ip), vehicle: Klucel (hydroxypropylcellulose) (HPC)) 97 % of control.
On to `Cc1ccc([N+](=O)[O-])cc1NC(=O)Nc1ccccc1C(N)=O`, for which the T/C was 114 % of control under setting [1], 103 % of control under setting [2] and 94 % of control under setting [3].
In the case of `CC1OC(C2COC(C)(C)O2)C2OCOC12` (configuration not stated), the T/C reads like this: (endpoint: mean survival time, dose: 100.0 mg/kg/injection, schedule: Q04DX002 (ip), vehicle: saline with Tween-80) 100 % of control; (endpoint: mean survival time, dose: 200.0 mg/kg/injection, schedule: Q04DX002 (ip), vehicle: saline with Tween-80) 100 % of control; (endpoint: mean survival time, dose: 400.0 mg/kg/injection, schedule: Q04DX002 (ip), vehicle: saline with Tween-80) 100 % of control.
On to `O=[N+]([O-])c1ccc(-c2ccc([N+](=O)[O-])cc2)cc1`, for which the T/C reads like this: under setting [1], 98 % of control; under setting [2], 124 % of control; under setting [3], 95 % of control.
